A melting point compilation (Tetko et al.; mined from patent text by program, amines drawn as free bases though some values may be those of a salt)

Work on `CC1(CCn2nc(-c3ccncc3)oc2=O)Cn2cc([N+](=O)[O-])nc2O1` (stereo not drawn) yielded a melting point of 147 to 149 °C.
`CC(=Cc1ccccc1)c1ccc2c(c1)SCCC2(C)C` showed a melting point of 67 to 69 °C.
For `OCc1cn(-c2ccc(OC(F)(F)F)cc2)cn1`, the melting point was 105 to 106 °C.
Work on `O=C(CCCc1ccccc1)c1cc(O)c(O)c([N+](=O)[O-])c1` yielded a melting point of 118 to 119 °C.
In the case of `CCOC(=O)C(=O)Nc1coc2ccc(Cl)cc2c1=O`, the melting point is reported as 161 to 162 °C.
Compound `COc1cccc(C#Cc2ccncc2)c1` has a melting point of 33 to 35 °C.
Work on `Cc1cc(Cn2nnc(C(N)=O)c2N)cc(C)c1C(=O)c1ccc(Cl)cc1` yielded a melting point of 208 to 209 °C.
For `COC(=O)c1nn(Cc2ccccc2)c2c1CCc1cc(OCc3cncnc3)ccc1-2`, the melting point was 202 to 203 °C.
`CCn1c(=O)c2c(nc(/C=C/c3ccc(OC(=O)c4ccccc4)c(OC)c3)n2C)n(CC)c1=O` gave a melting point of 234 to 236 °C.
`CCCCC(=O)OC1(C(C)=O)C(C)CC2C3CCC4=CC(=O)C=CC4(C)C3(Cl)C(Cl)CC21C` (stereo not drawn) showed a melting point of 170 to 172 °C.
`CC(C)(C(=O)O)c1ccc(CCNS(=O)(=O)c2ccccc2)cc1` showed a melting point of 86 to 88 °C.
For `CCOC(=O)CS(=O)CCCCl` (stereo not drawn), the melting point was 46 to 47 °C.
`CNC(=O)N1CCc2[nH]cnc2C1C1CCCCC1` (stereo not drawn) gave a melting point of 250 °C.
For `CNS(=O)(=O)Cc1cc(Br)c(N)c(Br)c1`, the melting point was 155 to 157 °C.
Work on `COC(=O)c1ccc(Cl)c([N+](=O)[O-])c1Cl` yielded a melting point of 72 to 74 °C.
`CC(=O)ON(CCOc1ccc2c(c1)CCN(CCCc1ccc(F)cc1)C2=O)C(N)=O` gave a melting point of 113 to 114 °C.
In the case of `O=C(C=C(S)c1ccccc1)Nc1nc2ccccc2s1`, the melting point is reported as 168 to 172 °C.
With `CCCCCCCCCCCCn1nnnc1CCC(=O)Nc1c(OC)cc(OC)cc1OC` the melting point was 57 to 61 °C.
Work on `OCc1cnn(-c2c(Cl)cc(C(F)(F)F)cc2Cl)n1` yielded a melting point of 87 to 88 °C.
`Oc1cc2c(c3c1CC=CC3)Nc1ccccc1S2` showed a melting point of 166 °C.
For `CCCCCCC(NS(=O)(=O)c1ccc(Cl)cc1)C(=O)Nc1ccc(CC(=O)OCC)cc1` (racemic), the melting point was 110 to 112 °C.
In the case of `O=C(O)c1ccc2c(c1)S(=O)(=O)c1ccccc1S2`, the melting point is reported as 297 to 304 °C.
With `COc1cc(C(O)CCCCCCCCCCOCc2ccccc2)ccc1OCc1ccccc1` (stereo not drawn) the melting point was 43 to 45 °C.
With `CC1(C)CNc2nc3cnc4ccccc4c3n2C1` the melting point was 326 to 330 °C.
`CCCC1=C(c2cccc([N+](=O)[O-])c2)C(=NO)CC1` gave a melting point of 128 to 129 °C.
`Nc1nc(CCc2ccccc2)nc2nc(-c3ccco3)nn12` gave a melting point of 235 to 237 °C.
In the case of `C=CC(=O)OCCCCCCCCCCCCOc1ccc(-c2cccc(F)c2F)cc1`, the melting point is reported as 59.7 to 60.7 °C.
`Cn1c(C(=O)OCc2ccccc2)c(-c2ccc(F)cc2)c2cccnc2c1=O` gave a melting point of 217 to 218 °C.
With `CC(C)(C)c1cc(CC#Cc2ccc(C(=O)O)c(O)c2)cc(C(C)(C)C)c1O` the melting point was 205 to 206 °C.
With `COc1ccccc1OCC(O)CN1CCC(NC(=O)NC(=O)c2ccc(F)cc2)CC1` (stereo not drawn) the melting point was 194 to 195 °C.
Compound `CN(C)Cc1cc(C(=O)Nc2nc(-c3ccco3)c(C(=O)c3ccccc3)s2)ccn1` has a melting point of 205 to 209 °C.
`CCOC(=O)c1ccc(NC=O)c(C(=O)CCNC(=O)OC(C)(C)C)c1` showed a melting point of 135 to 137 °C.
In the case of `CN(C)C(=O)Cn1c(-c2ccc([N+](=O)[O-])cc2)nc2cccnc21`, the melting point is reported as 204 to 207 °C.
`O=c1[nH]cc(Cc2ccccc2)c2ccccc12` gave a melting point of 217 to 220 °C.
With `CC(=O)c1ccc(N2CCN(C)CC2)cc1` the melting point was 97 to 99 °C.
`CC(=O)c1ccc(OCc2ccsc2)cc1OC(CCc1ccccc1C#N)C(=O)O` (stereo not drawn) showed a melting point of 132 to 134 °C.
`CC(C)C[C@@H](C(=O)O)N(C)C(=O)OCc1ccccc1` showed a melting point of 69 to 71 °C.
With `CS(=O)(=O)c1cccc(S(N)(=O)=O)c1` the melting point was 99.5 to 101 °C.
Compound `CC(=O)NC(=O)C(Cl)C(C)=O` (stereo not drawn) has a melting point of 54 to 58 °C.
For `CCOC(=O)C=C(C)C=CC=C(C)C=Cc1c(C)c(Cl)c(C)c(Cl)c1C`, the melting point was 220 to 222 °C.
Work on `COC(=O)c1cccc(S(=O)(=O)Cc2c(O[C@H](Cn3ccnc3)c3ccccc3)ccc3c2CCCC3=O)c1` yielded a melting point of 85 °C.
`O=C(NS(=O)(=O)NCCCN1CCC(Oc2ccc(Cl)c(Cl)c2)CC1)c1ccccc1` showed a melting point of 93 to 106 °C.
Work on `COC(=O)c1cc2ccnc(NS(=O)(=O)c3cccs3)c2[nH]1` yielded a melting point of 159 to 160 °C.
`Nc1ccc(Oc2cccc3ccccc23)nc1` gave a melting point of 82.2 to 83.7 °C.
Compound `CN(C)Cc1ccc(CSCCNC(=O)NCCN(C)CCN(Cc2ccc(F)cc2)c2ccccn2)o1` has a melting point of 90 °C.
Compound `Cc1cc(C)c2c(=O)cc(C(=O)O)[nH]c2c1` has a melting point of 285 to 287 °C.
For `CC(C)(O)CC12C=CC=CC1C(=O)NC2=O` (stereo not drawn), the melting point was 104 to 105 °C.
Work on `O=C(O)Cc1cc(Cl)c2c(c1)CCC(c1ccccc1F)N2` (stereo not drawn) yielded a melting point of 127 to 129 °C.
Work on `COc1ccc(-c2[nH]nc3c2C(=O)c2c(NC(=O)NNC(=O)c4ccc(O)cc4)cccc2-3)cc1` yielded a melting point of 283 °C.
In the case of `O=C1CC(c2ccc(O)cc2)Oc2cc(O)c(C3OC(CO)C(O)C(O)C3O)c(O)c21` (stereo not drawn), the melting point is reported as 195 to 196 °C.
With `CS(=O)CC(=O)c1ccc(Cl)cc1N` (stereo not drawn) the melting point was 129 to 132 °C.
Compound `CC1(C)CCC(C)(C)c2cc(Br)c(O)cc21` has a melting point of 90 to 94 °C.
Work on `CCn1ncc(OCc2ccc(OCOC)cc2)c(Br)c1=O` yielded a melting point of 104 to 106 °C.
`CC(Cc1cccc(Cl)c1)(NC=O)c1ccccc1` (stereo not drawn) showed a melting point of 108 to 109 °C.
With `COc1ncccc1-c1cccn2nc(Cl)nc12` the melting point was 218 to 219 °C.
`Cn1c(C(F)(F)F)cc(=O)n(-c2nc(Cl)c(Cl)cc2F)c1=O` showed a melting point of 113 to 115 °C.
In the case of `CCOc1c(C23OCC(C)(C)C2(C(C)(C)C)OO3)sc2ccc(O[Si](C)(C)C(C)(C)C)cc12` (stereo not drawn), the melting point is reported as 106 to 107 °C.
`Clc1ccc2oc(C3CCNCC3)cc2c1` gave a melting point of 77 to 78 °C.
Work on `O=Cc1cccc2oc3ccccc3c12` yielded a melting point of 66 to 68 °C.
With `Cc1ccc(Nc2nc(Cl)nc(Cl)n2)cc1F` the melting point was 130 °C.
`CC1CCCN1C1CCN(c2ccc(C(=O)NC3CCOCC3)cc2)C1` (stereo not drawn) gave a melting point of 180 °C.
Compound `NC(=O)CCCCCOc1cc(-c2ccccc2)cc(-c2ccccc2)n1` has a melting point of 118 to 120 °C.
Work on `CC(C)CCC(=O)N[C@H]1CC[C@H](CCN2CCN(c3nccc4c3CCO4)CC2)CC1` yielded a melting point of 182 °C.
Compound `COC[C@H](C1CC1)n1cc(Cl)nc(Cl)c1=O` has a melting point of 110 to 111 °C.
In the case of `COC(=O)CCCCCCCC(=O)CCC(=O)COC(C)=O`, the melting point is reported as 64 to 65 °C.
`CN1CCN(c2ccc3c(=O)n4c(nc3c2)C(=O)c2cc(F)ccc2-4)CC1` showed a melting point of 242 to 244 °C.
For `Oc1ccc(-c2ccc(O)c(Br)c2)cc1Br`, the melting point was 118 to 121 °C.
Compound `O=C(CCc1ccncc1)c1c(O)c2cccnc2n(-c2ccccc2)c1=O` has a melting point of 206 to 208 °C.
Work on `CCn1c(=O)[nH]c2cc3c(N4CCN(C(=O)Nc5ccc(Oc6ccccc6)cc5)CC4)ncnc3cc21` yielded a melting point of 248 to 251 °C.
With `O=C(NCc1ccc(F)cc1)c1ccnc(N2CCN(Cc3ccc(F)c(F)c3)C2=O)c1` the melting point was 165 to 167 °C.
`O=C(Nc1ccccc1S(=O)(=O)c1ccccc1)N[C@@H](Cc1ccc(Nc2nccc3cnccc23)cc1)C(=O)O` gave a melting point of 192 °C.
`CCCc1nc2c(N)nc3cc(OCCC4CCN(C(=O)OC(C)(C)C)CC4)ccc3c2n1CC(C)C` showed a melting point of 196 to 200 °C.
With `CC(C)(C)OC(=O)CN(CCO)C(=O)c1cc([N+](=O)[O-])ccc1F` the melting point was 116 to 118 °C.
With `CC(=O)NC[C@H]1CN(c2ccc(-c3ncon3)c(F)c2)C(=O)O1` the melting point was 197 to 199 °C.
`COc1cc(C=O)cc2c1OCCC2=O` showed a melting point of 139 °C.
Work on `COc1ccc([N+](=O)[O-])c(Br)c1OC` yielded a melting point of 120 to 122 °C.
Compound `O=S(=O)(NCC(O)(Cn1cncn1)c1ccc(Cl)cc1Cl)c1cccs1` (stereo not drawn) has a melting point of 169 to 180 °C.
Compound `O=C(O)c1cc([N+](=O)[O-])c(Nc2ccccc2)c(S(=O)(=O)Nc2ccccc2)c1` has a melting point of 249 to 250 °C.
Compound `CCSc1c(C=NOC)c(=O)n(C)c(=O)n1C` has a melting point of 74 to 75 °C.
With `O=c1c(Cl)c(-c2ccncn2)nc2n1CCCN2C[C@@H](O)c1ccccc1` the melting point was 158 to 160 °C.
With `COc1cccc(NC(=O)c2cc(C)sc2Br)c1O` the melting point was 169 to 172 °C.
With `CCCn1nc(-c2cnc(N)nc2-c2ccccc2)ccc1=O` the melting point was 188 to 189 °C.
In the case of `O=C(Nc1ccc(F)cc1)N1CC2C(C1)C2Nc1ncc2cc(-c3ccccc3Cl)c(=O)n(-c3ccc(F)cc3)c2n1` (stereo not drawn), the melting point is reported as 300 to 302 °C.
Work on `COc1cc(-c2nc(-n3c(C)ccc3C)sc2SCC2CCCC2)c(OC)cc1C` yielded a melting point of 108 °C.
In the case of `O=C(O)c1ccc(CN2C(=O)C3(COc4cc5c(cc43)OCCO5)c3ccccc32)o1` (stereo not drawn), the melting point is reported as 192 to 195 °C.
Compound `NC(=NO)c1cccc2ccccc12` has a melting point of 128 to 130 °C.
Compound `CC(C)N(CCC(C(N)=O)(c1ccc(O)cc1)c1ccccn1)C(C)C` (stereo not drawn) has a melting point of 148 to 151 °C.
In the case of `CCNC(=O)n1nc(Oc2ccc([N+](=O)[O-])cc2C(F)(F)F)cc1C`, the melting point is reported as 95 to 97 °C.
Work on `CC(=O)C1=C(O)C(=C(C)Nc2ccc(Cl)cc2)C(=O)OC1=O` yielded a melting point of 205 to 206 °C.
`O=c1c(-c2ccccc2)coc2ccccc12` gave a melting point of 132 to 134 °C.
Work on `CCN1CCc2nc(N3CCN(Cc4ccccc4)CC3)ncc2C1=O` yielded a melting point of 128 to 130 °C.
`CSC(=N)Nc1c(C)cccc1Cl` showed a melting point of 183 to 184 °C.
In the case of `O=C(O)CCSCC(=O)c1cc2[nH]c(=O)[nH]c2cc1Cl`, the melting point is reported as 186 to 187 °C.
`CC1(C)CC(NC(=O)NCc2ccccc2)c2cc(C#N)ccc2O1` (stereo not drawn) gave a melting point of 140 to 141 °C.
Work on `COc1cc(Cl)cn2cc(-c3ccc(Cl)cc3)nc12` yielded a melting point of 150 to 151 °C.
`CCCCCOC1=C(c2ccccc2)C(CCC(=O)O)OC1=O` (stereo not drawn) showed a melting point of 86 to 87 °C.
In the case of `Cc1nnc(-c2nnc(SCCC(F)=C(F)F)o2)o1`, the melting point is reported as 77 to 79 °C.
In the case of `O=[N+]([O-])c1ccc2nc3c4ccccc4c4ccccc4c3nc2c1`, the melting point is reported as 253 to 255 °C.
With `N#CCC1=C(n2nc(-c3c(-c4ccccc4)nn4ccccc34)ccc2=O)CCCC1` the melting point was 74 to 76 °C.
`O=c1nc(-c2cccc(CSCc3ccccc3)n2)sc2ccccc12` gave a melting point of 126 to 128 °C.
With `Cc1cc(CC(=O)O)n(C)c1C(=O)c1ccc2n1CCC2` the melting point was 132 to 134 °C.
In the case of `CCOC(=O)c1ccc(NC(=N)c2ccc(OC)cc2)cc1`, the melting point is reported as 128 to 132 °C.
In the case of `C/C(=N\O)c1cccc(NC(=O)NCC(=O)N(CC(=O)N2CCCC(C)(C)C2)c2ccccc2)c1`, the melting point is reported as 248 °C.
